Source: paper PMC6410416 (Marine Drugs, 2019)

Molecular target: T1, Ps-Mn-SOD (Paelopatides sp. YL-2018, UniProt A0A411L1L4)
T1 construct: ORF 255 residues, signal peptide deleted; 6xHis tag (pCold II), E. coli pG-KJE8/BL21, Ni-NTA; about 30 kDa subunit, dimer about 60 kDa; C-terminal peptide (from primer) PSKHEEL
T1 sequence (A0A411L1L4 22-255): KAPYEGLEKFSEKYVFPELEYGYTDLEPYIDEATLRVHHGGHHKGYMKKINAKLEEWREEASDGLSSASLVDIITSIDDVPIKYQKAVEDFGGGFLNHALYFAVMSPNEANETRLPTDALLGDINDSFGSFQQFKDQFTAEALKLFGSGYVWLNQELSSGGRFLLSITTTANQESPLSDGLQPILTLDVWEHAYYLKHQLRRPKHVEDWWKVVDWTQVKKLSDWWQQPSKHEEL
Test: SOD assay kit, inhibition of chromogen production at […] nm
Format: biochemical
Details: superoxide generated in situ; turnover only

[O]O [superoxide]
SOD assay kit, inhibition of chromogen production at 550 nm: SOD activity was determined via spectrophotometric method using the SOD assay kit
